Data as given in the RepoRT retention time repository.

experiment: A: acetonitrile + 0.1% formic acid + 10 mM ammonium formate; B: 5% water + 95% acetonitrile + 0.1% formic acid + 10 mM ammonium formate; gradient (min/%B) 0/10 2/10 22/100 27/100 27.1/10; conditions: stereoisomer not certain

Row | SMILES | LC retention time [min]
1 | CC(C)C(N)CC(=O)O (racemic) [DL-beta-Leucine] | 5.29
2 | CCCCCCCCCCCCCC(=O)OCC(COP(=O)(O)OCCN)OC(=O)CCCCCCCCCCCCC (stereo not given) [1,2-Dimyristoyl-sn-glycero-3-phosphoethanolamine] | 2.44
3 | CCCCCCCCCCCCCCCC(=O)OCC(COP(=O)(O)O)OC(=O)CCCCCCCCCCCCCCC (stereo not given) [1,2-Dipalmitoyl-sn-glycero-3-phosphate] | 2.45
4 | COc1cc(OC)cc(OC)c1 [1,3,5-Trimethoxybenzene] | 0.423
5 | Cn1c(=O)[nH]c2ncn(C)c2c1=O [1,7-dimethylxanthine] | 0.655
6 | O=C(O)CCCCCCCCCCCC(=O)O [1,11-Undecanedicarboxylic acid] | 0.554
7 | NC12CC3CC(CC(C3)C1)C2 [1-Aminoadamantane] | 2.36
8 | NC1(C(=O)O)CC1 [1-Aminocyclopropanecarboxylic acid] | 6.03
9 | c1coc(Cn2cccc2)c1 [1-Furfurylpyrrole] | 0.425
10 | C[n+]1cccc(C(=N)[O-])c1 [1-Methylnicotinamide] | 4.68
11 | Cn1c(=O)[nH]c2[nH]c(=O)[nH]c2c1=O [1-Methyluric acid] | 3.32
12 | Nc1ncnc2c1ncn2C1CC(O)C(CO)O1 (stereo not given) [2'-Deoxyadenosine] | 1.39
13 | Nc1ccn(C2CC(O)C(CO)O2)c(=O)n1 (stereo not given) [2'-Deoxycytidine] | 3.51
14 | Nc1nc2c(ncn2C2CC(O)C(COP(=O)(O)O)O2)c(=O)[nH]1 (stereo not given) [2'-Deoxyguanosine 5'-monophosphate] | 7.1
15 | Nc1nc2c(ncn2C2CC(O)C(CO)O2)c(=O)[nH]1 (stereo not given) [2'-Deoxyguanosine] | 4.06
16 | O=c1ccn(C2CC(O)C(CO)O2)c(=O)[nH]1 (stereo not given) [2'-Deoxyuridine] | 1.23
17 | CC1=CC(=O)C(C)O1 (stereo not given) [2,5-Dimethyl-2,3-dihydrofuran-3-one] | 0.451
18 | NC(CCCC(N)C(=O)O)C(=O)O (stereo not given) [2,6-Diaminopimelic Acid] | 8.06
19 | COc1cccc(OC)c1C(=O)O [2,6-Dimethoxybenzoic acid] | 0.628
20 | CC(=O)c1cnccn1 [2-Acetylpyrazine] | 0.441
21 | NCC(O)c1ccccc1 (stereo not given) [2-Amino-1-phenylethanol] | 2.92
22 | CC(C)(N)C(=O)O [2-Aminoisobutyric acid] | 5.89
23 | CCCCCCC(N)C(=O)O (stereo not given) [2-Aminooctanoic acid] | 4.11

Row | SMILES | LC retention time [min]
24 | CCc1occc(=O)c1O [2-Ethyl-3-hydroxy-4H-pyran-4-one] | 0.586
25 | O=C(O)CNC(=O)c1ccccc1O [2-Hydroxy Hippuric Acid] | 1.14
26 | COc1ccccc1C=CC=O [2-Methoxycinnamaldehyde] | 0.436
27 | CCC(C)C(=O)NCC(=O)O (stereo not given) [2-Methylbutyrylglycine] | 1.55
28 | Cc1ccccc1C(=O)NCC(=O)O [2-Methylhippuric acid] | 3.28
29 | O=C(O)c1ccccn1 [2-Picolinic acid] | 3.08
30 | O=C(O)CNC(=O)c1ccc(O)cc1 [2-[(4-Hydroxyphenyl)formamido]acetic acid] | 3.64
31 | NC(Cc1cc(I)c(Oc2ccc(O)c(I)c2)c(I)c1)C(=O)O (stereo not drawn) [3,3',5-Triiodo-l-thyronine] | 3.5
32 | COc1cc(C=CC(=O)O)cc(OC)c1OC [3,4,5-Trimethoxycinnamic acid] | 0.47
33 | O=Cc1ccc(O)c(O)c1 [3,4-Dihydroxybenzaldehyde] | 0.571
34 | COc1ccc(CC(=O)O)cc1OC [3,4-Dimethoxyphenylacetic acid] | 0.554
35 | N[C@@H](Cc1cc(I)c(Oc2ccc(O)cc2)c(I)c1)C(=O)O [3,5-Diiodo-L-Thyronine] | 3.63
36 | COc1cc(O)cc(OC)c1 [3,5-Dimethoxyphenol] | 0.433
37 | CC(CN)C(=O)O (stereo not given) [3-Aminoisobutanoic acid] | 5.88
38 | Cc1occc(=O)c1O [3-Hydroxy-2-methyl-4-pyrone] | 0.613
39 | O=C(O)CCc1c[nH]c2ccccc12 [3-Indolepropionic acid] | 0.467
40 | COc1cc(CCN)ccc1O [3-Methoxytyramine] | 2.92
41 | Cn1cncc1C[C@H](N)C(=O)O [3-Methyl-L-histidine] | 7.74
42 | Cn1cnc(=N)c2[nH]cnc21 [3-Methyladenine] | 2.75
43 | Cc1c[nH]c2ccccc12 [3-Methylindole] | 0.412
44 | COc1ccc2[nH]cc(CCN)c2c1 [5-Methoxytryptamine] | 2.21
45 | O=C(O)c1ccc(=O)[nH]c1 [6-Hydroxynicotinic acid] | 5.17

Next, values leading:

Row | LC retention time [min] | SMILES
46 | 0.421 | CCC=CCC1C(=O)CCC1CC(=O)OC (mixture of isomers) [Methyl Jasmonate (mixture of isomers)]
47 | 4.49 | COc1ccc2[nH]cc(CC(N)C(=O)O)c2c1 (racemic) [5-Methoxy-DL-tryptophan]
48 | 1.21 | CC(C)NCC(O)COc1cccc2ccccc12 (racemic) [(+/-)-Propranolol]
49 | 2.67 | CCN1CCCC1CNC(=O)c1cc(S(N)(=O)=O)ccc1OC (racemic) [(+/-)-Sulpiride]
50 | 0.815 | COc1ccc(CCN(C)CCCC(C#N)(c2ccc(OC)c(OC)c2)C(C)C)cc1OC (racemic) [(+/-)-Verapamil]
51 | 7.79 | NCC(N)C(=O)O (racemic) [DL-2,3-Diaminopropionic acid]
52 | 7.93 | NCC(O)CCC(N)C(=O)O (racemic) [DL-5-Hydroxylysine]
53 | 0.473 | NC(=O)CCCCC1CCSS1 (racemic) [DL-6,8-Thioctamide]
54 | 5.69 | NC(CCS)C(=O)O (racemic) [DL-Homocysteine]
55 | 0.968 | O=C(O)C(O)Cc1c[nH]c2ccccc12 (racemic) [DL-Indole-3-lactic acid]
56 | 5.38 | NC(Cc1cccc(O)c1)C(=O)O (racemic) [DL-m-Tyrosine]
57 | 1.32 | CC(=O)NC(Cc1c[nH]c2ccccc12)C(=O)O (racemic) [N-Acetyl-DL-Tryptophan]
58 | 5.82 | CC(=O)NC(CO)C(=O)O (racemic) [N-Acetyl-DL-serine]
59 | 0.407 | CC(C)CCCC(C)C1CCC2C3CCC4=CC(=O)CCC4(C)C3CCC12C (single isomer, unassigned; (+)) [(+)-4-Cholesten-3-one]
60 | 0.729 | O=c1[nH]c(=O)n(C2CC(O)C(CO)O2)cc1I (single isomer, unassigned; (+)) [(+)-5-Iodo-2'-deoxyuridine]
61 | 0.417 | C=C(C)C1CCC2=CC(=O)CC(C)C2(C)C1 (single isomer, unassigned; (+)) [(+)-Nootkatone]
62 | 2.17 | CC(C)(CO)C(O)C(=O)NCCC(=O)O (single isomer, unassigned; (+)) [(+)-Pantothenic acid]
63 | 0.405 | CC(C)=CCCC(C)CC=O (single isomer, unassigned; (-)) [(-)-Citronellal]
64 | 0.438 | CC1=CCC2CC1C2(C)C (single isomer, unassigned; (-)) [(-)-alpha-Pinene]
65 | 1.15 | Cn1c(=O)[nH]c(=O)c2[nH]cnc21 [3-Methylxanthine]
66 | 4.76 | N[C@@H](Cc1ccc(O)c([N+](=O)[O-])c1)C(=O)O [3-Nitro-L- tyrosine]
67 | 4.57 | NC(=O)NCCC(=O)O [3-Ureidopropionic acid]
68 | 0.441 | Nc1ccc(S(=O)(=O)c2ccc(N)cc2)cc1 [4,4'-Diaminodiphenyl sulfone]

Row | LC retention time [min] | SMILES
69 | 0.575 | CC(=O)CC(=O)CCC(=O)O [4,6-Dioxoheptanoic acid]
70 | 1.23 | CC(=O)NCCCC(=O)O [4-(Acetylamino)butanoic acid]
71 | 0.477 | CC(=O)Nc1ccc(O)cc1 [4-Acetamidophenol]
72 | 0.517 | Nc1ccc(O)cc1 [4-Aminophenol]
73 | 0.675 | Nc1ccc(C(=O)O)c(O)c1 [4-Aminosalicylic Acid]
74 | 5.73 | NC(N)=NCCCC(=O)O [4-Guanidinobutyric acid]
75 | 0.535 | COc1cc(CC(=O)O)ccc1O [4-Hydroxy-3-methoxyphenylacetic Acid]
76 | 3.98 | O=Cc1ccc(O)cc1 [4-Hydroxybenzaldehyde]
77 | 0.875 | Cc1ncc(CO)c(C(=O)O)c1O [4-Pyridoxic acid]
78 | 0.621 | CC1CNC(=O)NC1=O (stereo not given) [5,6-Dihydro Thymine]
79 | 0.733 | Cc1cc2nc[nH]c2cc1C [5,6-Dimethylbenzimidazole]
80 | 3.02 | NC(=O)c1ncn(C2OC(CO)C(O)C2O)c1N [5-Aminoimidazole-4-carboxamide-1-beta-D-ribofuranoside]
81 | 5.89 | NCC(=O)CCC(=O)O [5-Aminolevulinic acid]
82 | 1.82 | Nc1ccc(O)c(C(=O)O)c1 [5-Aminosalicylic acid]
83 | 5.83 | NCCCCC(=O)O [5-Aminovaleric acid]
84 | 0.651 | O=C(O)Cc1c[nH]c2ccc(O)cc12 [5-Hydroxyindole-3-acetic acid]
85 | 3.15 | Cc1cnc(=O)[nH]c1N [5-Methylcytosine]
86 | 1.78 | Cc1cn(C2OC(CO)C(O)C2O)c(=O)[nH]c1=O (stereo not given) [5-Methyluridine]
87 | 5.34 | Cn1c[n+](C2OC(CO)C(O)C2O)c2nc(N)nc([O-])c21 (stereo not given) [7-Methylguanosine]
88 | 1.37 | Cn1cnc2[nH]c(=O)[nH]c(=O)c21 [7-Methylxanthine]
89 | 0.423 | CC(=O)C1=CCC2C3CCC4=CC(=O)CCC4(C)C3CCC12C (stereo not given) [16-Dehydroprogesterone]
90 | 0.437 | CC(=O)C1(O)CCC2C3CCC4=CC(=O)CCC4(C)C3CCC21C (stereo not drawn) [17-alpha-Hydroxyprogesterone]
